Assays:
[1] = system: MM 1S multiple myeloma tumour cell line; experiment: In vitro cytotoxicity, MTT assay, MM1S cells; format: cell-based; settings: Homo sapiens, MM1.S, 96 hours exposure
Experimental: (§1) The cytotoxicity studies were evaluated by MTT assay and carried out on MM 1S multiple myeloma or Z138 mantle cell lymphoma tumour cell lines. The cells are distributed onto microplates and exposed to the test compounds for 96 hours. The cell viability is then quantified by a colorimetric assay, the Microculture Tetrazolium Assay (Carmichael et. al., Cancer Res. […], 47, 936-942).

[2] = system: Z138 mantle cell lymphoma tumour cell line; experiment: In vitro cytotoxicity, MTT assay, Z138 cells; format: cell-based; settings: Homo sapiens, Z-138; Z138 tumour cell line (underlined values); 96 hours exposure
Experimental: as §1

USP7 = target: T1, USP7 (Homo sapiens, UniProt Q93009, C315A); experiment: Inhibition of USP7 by Fluorescence Intensity (FLINT) readings, Ubiquitin-Rhodamine-110 substrate; format: biochemical; settings: 0.25 nM His-His-USP7 (aa208-560, [C315A]); compound 60 minutes at 30° C.; 500 nM Ubiquitin-Rhodamine substrate; 11-point curves
T1 construct: 0.25 nM His-His-USP7 (aa208-560, [C315A]) was incubated with compound; His-His (N)
T1 sequence (Q93009 208-560 C315A): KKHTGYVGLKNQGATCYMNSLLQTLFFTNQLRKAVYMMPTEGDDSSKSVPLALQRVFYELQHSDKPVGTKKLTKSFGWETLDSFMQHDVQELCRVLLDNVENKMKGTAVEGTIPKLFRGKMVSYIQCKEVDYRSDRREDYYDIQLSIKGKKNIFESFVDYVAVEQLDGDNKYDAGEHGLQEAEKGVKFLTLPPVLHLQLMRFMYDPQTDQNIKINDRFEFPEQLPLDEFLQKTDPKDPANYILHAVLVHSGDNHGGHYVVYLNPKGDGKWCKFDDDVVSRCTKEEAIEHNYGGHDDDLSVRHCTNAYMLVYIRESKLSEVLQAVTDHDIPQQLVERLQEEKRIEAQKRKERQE
In short: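 His-His-USP7 (aa208-560, C315A) at 0.25 nM was preincubated with compound for 60 min at 30 °C in 100 mM Bicine pH 8.0, 0.01% Triton X-100, 1 mM TCEP, 10% DMSO. 500 nM ubiquitin-rhodamine-110 was then added, with fluorescence (Ex 485/Em 535 nm) read every 3 min for 21 min. IC50 came from kinetic-rate inhibition, 11-point curves, 4-parameter fit.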

With `O=C([C@@H]1CCCC[C@H]1n1cccc1)N1CCC(O)(Cn2cnc3c(ccn3-c3ccccc3)c2=O)CC1` (single isomer, unassigned) [Example 14, 3-[[4-hydroxy-1-[trans-2-pyrrol-1-ylcyclohexanecarbonyl]-4-piperidyl]methyl]-7-phenyl-pyrrolo[2,3-d]pyrimidin-4-one] the IC50 [1] was 6.42 nM, the IC50 [2] was 14.7 nM and the IC50 (USP7) was 27.1 nM.

With `COc1ccc(-n2ccc3c(=O)n(CC4(O)CCN(C(=O)[C@@H]5CCC(F)(F)C[C@H]5c5ccccc5)CC4)cnc32)cc1` (single isomer, unassigned) [Example 34, 3-[[1-[trans-4,4-difluoro-2-phenyl-cyclohexanecarbonyl]-4-hydroxy-4-piperidyl]methyl]-7-(4-methoxyphenyl)pyrrolo[2,3-d]pyrimidin-4-one] the IC50 [1] was 24.5 nM, the IC50 [2] was 5.66 nM and the IC50 (USP7) was 23.1 nM.

`COc1ccc(-n2ccc3c(=O)n(CC4(O)CCN(C(=O)[C@@H]5CCCC[C@H]5c5ccccc5)CC4)cnc32)cc1` (relative stereo) [Example 21, 3-[[4-hydroxy-1-(trans-2-phenylcyclohexanecarbonyl) 4-piperidyl]methyl]-7-(4-methoxyphenyl)pyrrolo[2,3-d]pyrimidin-4-one] gave an IC50 [1] of 3.4 nM and an IC50 (USP7) of 26.9 nM.

`O=C(C1CC(F)CCC1c1ccccc1)N1CCC(O)(Cn2cnc3c(ccn3-c3ccccc3)c2=O)CC1` (stereo not drawn) [Example 37, 3-[[1-[5-fluoro-2-phenyl-cyclohexanecarbonyl]-4-hydroxy-4-piperidyl]methyl]-7-phenyl-pyrrolo[2,3-d]pyrimidin-4-one] gave an IC50 [1] of 84.1 nM and an IC50 (USP7) of 46.3 nM.

`O=C([C@@H]1CCCC(F)(F)[C@H]1c1ccccc1)N1CCC(O)(Cn2cnc3c(ccn3-c3ccccc3)c2=O)CC1` (relative stereo) [Example 52, 3-[[1-[trans-3,3-difluoro-2-phenyl-cyclohexanecarbonyl]-4-hydroxy-4-piperidyl]methyl]-7-phenyl-pyrrolo[2,3-d]pyrimidin-4-one] was tested, and the IC50 [1] was 100 nM and the IC50 (USP7) was 71.8 nM.
